According to US12576070B2, “Medicine for improving state of pregnancy, and use thereof” (priority 2014, dated 2026):

Legend:
[1] = system: women with a history of or susceptible to pregnancy-induced hypertension syndrome; assay: Tacrolimus treatment of women at risk of pregnancy-induced hypertension syndrome (Example 3); assay type: in vivo, human
Description: Once pregnancy-induced hypertension syndrome develops, the possibility of experiencing repeated onset in the subsequent gestations is very high. The patients were evaluated through a transvaginal ultrasound examination, a Fallopian tube patency test, and hysteroscopy before an index ART cycle. […] Any women who had experienced miscarriage in the previous IVF cycle, who had received an IVF cycle, or who had received vaccination, all within three months, were excluded from the subjects. Any women with acquired or congenital thrombophilia were excluded from the subjects. All the patients were subjected to treatment with tacrolimus in the same manner as in Example 2. The dose of tacrolimus was 1 mg to 3 mg per day. The duration of administration of tacrolimus was from the time point immediately after establishment of pregnancy was confirmed by a pregnancy test, until the day of delivery, in all cases. In Case 1 and Case 3 described below, 3 mg of tacrolimus per day was administered everyday from the time point immediately after establishment of pregnancy was confirmed and until the second trimester of pregnancy, and 2 mg of tacrolimus per day was administered everyday from the third trimester of pregnancy until the delivery. In Case 2 described below, 2 mg of tacrolimus per day was administered everyday from the time point immediately after establishment of pregnancy was confirmed and until the delivery. The treatment was carried out in the same manner as in Example 2. The effects of administering tacrolimus were evaluated on the basis of whether the patients satisfactorily maintained the state of pregnancy without developing pregnancy-induced hypertension syndrome at predetermined time points between the second trimester and the third trimester of pregnancy. Cases in which the evaluation has been roughly completed are as follows.

[2] = system: patient with a past history of both eclampsia and HELLP syndrome; assay: Tacrolimus monotherapy in a patient with past history of eclampsia and HELLP syndrome (Example 4); assay type: in vivo, human; settings: for ALT (U/L) / AST (U/L) / Cr / Hb / LDH (U/L) / Plt (10^4/uL) / WBC: blood examination, with tacrolimus treatment
Excerpt: The patient was a person (y.o.) […] with a past history of both eclampsia and HELLP syndrome. During the first pregnancy when the patient was […], they complained of physical deconditioning from early in their pregnancy. […] Sudden aggravation of the edema, proteinuria and hypertension appeared at 18 weeks gestation, at which time they were diagnosed with preeclampsia. HELLP syndrome and eclampsia occurred at 20 weeks gestation and a stillbirth required an emergency cesarean section. After delivery of the baby, they had severe complications such as pulmonary edema, disseminated intravascular coagulation, and intraperitoneal bleeding. They were medicated via an artificial respirator, and received albumin and a blood transfusion (Table 6). […] Laboratory findings related to infertility such as antiphospholipid syndrome (anti-CL IgG Ab, anti-CL IgM Ab, anti-β2GP-1 Ab, anti-PS/PT Ab, anti-PE IgG Ab, anti-PE IgM Ab), autoimmune disease (ANA and anti-DNA Ab), and disorders of blood coagulation (protein S activity, protein C activity, factor XII activity) were all negative. Although no obvious immunological abnormalities of the Th1(CD4^+IFN-γ+)/Th2 (CD4+IL-4^+) cell ratio (15.2/2.1) in CD4 positive cells (normal range, <10.3) were observed before pregnancy^46, it was assumed that maternal immunity would be activated by the embedding of a fertilized ovum (recognition of fetal antigens) and the abnormalities of maternal-fetal immunity may have inhibited placenta construction and caused fetal growth retardation and hypertension. The patient was treated with 1 mg/day of tacrolimus to control the maternal-fetal immunity. This patient received a monotherapy of tacrolimus without a concomitant treatment of a low dose of aspirin, which is often used as an anti-platelet agent for HDP^47. The course of the pregnancy was stable until the 3rd trimester, and no significant symptoms were observed during the 2nd trimester, at which point HELLP syndrome occurred in their previous pregnancy. Clinical signs of HELLP syndrome rapidly appeared, however, at 33 weeks gestation. A decrease in the Th1 and Th2 cell populations in CD4 positive cells and a reduction in the activity of NK cells over time post-partum were observed, which confirms that the tacrolimus regimen exerted sufficient suppressive effect on those cells, whereas the activity of NK cells was elevated at 32 weeks gestation. A possibility was speculated that NK cell activity was stimulated when a large number of fetal antigens were transferred to the maternal blood circulation after the suppression of the NK cells by the 1 mg/day dose of tacrolimus became insufficient in the 3rd trimester. […] Th1 and Th2 cell populations in CD4 positive cells and the NK cell activity were measured to evaluate the patient's pathological condition. One of the parameters, NK cell activity, indicated an appearance of abnormal maternal-fetal immunity. Other parameters that can be used to evaluate the failure of maternal tolerance for a fetus and activation of maternal immune rejection against a fetus with inflammation include Treg cells, Th17 cells, cytokines, and chemokines^37-44.

[3] = system: kidney transplant recipients with tacrolimus exposure during pregnancy; settings: cited from earlier work
[4] = Current pregnancy with tacrolimus treatment 1 mg/day
[5] = Current pregnancy with tacrolimus treatment 1 mg/day, after delivery
[6] = Current pregnancy with tacrolimus treatment 1 mg/day, before delivery
[7] = 236 babies born from kidney transplant recipients with tacrolimus exposure during pregnancy
[8] = kidney transplant recipients with tacrolimus exposure during pregnancy

Q: With `C=CCC1/C=C(\C)CC(C)CC(OC)C2OC(O)(C(=O)C(=O)N3CCCCC3C(=O)OC(/C(C)=C/C3CCC(O)C(OC)C3)C(C)C(O)CC1=O)C(C)CC2OC` (stereo not drawn) [tacrolimus, 17-Allyl-1,14-dihydroxy-12-[2-(4-hydroxy-3-methoxycyclohexyl)-1-methylvinyl]-23,2 5-dimethoxy-13,19,21,27-tetramethyl-11,28-dioxa-4-azatricyclo[22.3.1.04,9]octacos-18-ene-2,3,10,16-tetraone] as the molecule, how does the “increase in blood pressure” value ([1]; Case 1 (intrauterine fetal death in week 38 in previous gestation), 3 mg per day until second trimester, 2 mg per day from third trimester until delivery) read?
A: did not experience an increase in blood pressure

Q: And the “gave birth to a healthy baby in week” value ([1]; Case 1, 3 mg per day until second trimester, 2 mg per day from third trimester until delivery)?
A: 39 week

Q: What about the “increase in blood pressure” value ([1]; Case 2 (twin pregnancy with infertilitas and positive anti-phosphorus antibody), 2 mg per day until delivery) of the same molecule?
A: did not experience an increase in blood pressure

Q: And the “gave birth to a healthy baby in week” value ([1]; Case 2, 2 mg per day until delivery, premature rupture of the membrane caused by cough, premature birth of twin)?
A: 35 week

Q: What about the “edema and tendency of blood pressure increase” value ([1]; Case 3 (intrauterine fetal death in week 32 in previous gestation), 3 mg per day until second trimester, 2 mg per day from third trimester) of the same molecule?
A: without edema and without a tendency of blood pressure increase

Q: What about the “currently passing week of pregnancy” value ([1]; Case 3, 3 mg per day until second trimester, 2 mg per day from third trimester) of the same molecule?
A: 34 week

Q: What about the “Fetal information: fetal growth” value [2, 4] of the same molecule?
A: −1.9 SD

Q: And the “start of proteinuria (weeks gstation)” value [2, 4]?
A: 33 weeks gstation

Q: And the “Symptoms: edema” value [2, 5]?
A: slight

Q: What about the “Symptoms: hypertension” value [2, 5] of the same molecule?
A: transient

Q: What about the complications after deliverly [2, 5] of the same molecule?
A: none

Q: And the “Symptoms: edema” value [2, 6]?
A: slight

Q: What about the “Symptoms: hypertension” value [2, 6] of the same molecule?
A: not observed

Q: What about the “ALT (U/L)” value ([2]; after delivery) of the same molecule?
A: 833 U/L

Q: And the “AST (U/L)” value ([2]; after delivery)?
A: 898 U/L

Q: What about the “Cr” value ([2]; after delivery) of the same molecule?
A: 0.59 mg/dL

Q: And the “Hb” value ([2]; after delivery)?
A: 10.5 g/dL

Q: What about the “LDH (U/L)” value ([2]; after delivery) of the same molecule?
A: 1995 U/L

Q: What about the “Plt (10^4/uL)” value ([2]; after delivery) of the same molecule?
A: 2.2 10^4/uL

Q: And the WBC ([2]; after delivery)?
A: 8220 cells/µL

Q: What about the “ALT (U/L)” value ([2]; before delivery) of the same molecule?
A: 71 U/L

Q: What about the “AST (U/L)” value ([2]; before delivery) of the same molecule?
A: 65 U/L

Q: And the “Cr” value ([2]; before delivery)?
A: 1 mg/dL

Q: What about the “Hb” value ([2]; before delivery) of the same molecule?
A: 11 g/dL

Q: What about the “LDH (U/L)” value ([2]; before delivery) of the same molecule?
A: 316 U/L

Q: And the “Plt (10^4/uL)” value ([2]; before delivery)?
A: 10 10^4/uL

Q: And the WBC ([2]; before delivery)?
A: 8280 cells/µL

Q: And the “Th1 and Th2 cell populations in CD4 positive cells” value ([2]; during pregnancy, with time, tacrolimus 1 mg/day (FIG. 1))?
A: decrease

Q: And the NK cell activity ([2]; during pregnancy, normal range 18-40%, tacrolimus 1 mg/day (FIG. 1))?
A: decreased in the 2nd trimester and then obviously increased at 32 weeks gestation

Q: What about the “course of the pregnancy stable with no emergence of proteinuria, edema or hypertension until” value ([2]; tacrolimus 1 mg/day monotherapy) of the same molecule?
A: 32 weeks gestation

Q: And the “Clinical signs of HELLP syndrome appeared at” value ([2]; tacrolimus 1 mg/day monotherapy, previous pregnancy: 20 weeks gestation)?
A: 33 weeks gestation

Q: And the “prolonged the timing of onset of HELLP syndrome” value ([2]; tacrolimus 1 mg/day versus previous pregnancy without treatment)?
A: about 13 weeks gestation

Q: And the neonatal death rate [3, 7]?
A: 2%

Q: And the still born rate [3, 7]?
A: 2%

Q: What about the “obstetrical complications: diabetes during pregnancy” value [3, 8] of the same molecule?
A: 8%

Q: And the “obstetrical complications: hypertension” value [3, 8]?
A: 56%

Q: And the “obstetrical complications: infection” value [3, 8]?
A: 22%

Q: And the “obstetrical complications: preeclampsia” value [3, 8]?
A: 32%

Q: And the “obstetrical complications: spontaneous abortion” value [3, 8]?
A: 26%
